Assay results from US20060240026A1, “Preventing and/or remedy hematopoietic tumor” (GREEN PEPTIDE CO., LTD., priority 2003, published 2006).
Where “and” joins values, the source holds several entries; their conditions need not be identical. Identical values can stand only once. Entries after “also recorded” stand apart in the source; their conditions may differ. Ends that are not written are not given here.

Key:
[1] = tested on: HLA-A24+ hematologic malignant cell line (PEER, REH); experiment: 51Cr-release test of peptide-stimulated PBMCs against HLA-A24+ malignant line; assay type: cell-based, human; settings: peptide-stimulated patient PBMCs further cultured with IL-2, effector/target 3, 10 or 30, 6 h
Method: (§1) Then, the cytotoxicity against hematologic malignant cell lines was examined by a standard ^51Cr-release test (Non-Patent Reference 5). Specifically, the PBMCs obtained were used as an effector to mix with ^51Cr-labelled target cells (hereinafter referred to as targets) at an effector/target rate of 3, 10 or 30, and then incubated for six hours, followed by measuring the radioactivity of ^51Cr released in the supernatants. The results obtained were indicated as % lysis which was calculated by regarding a radioactivity as 100% when the targets were completely dissolved. The following targets were used: PEER, an HLA-A24^+ hematologic malignant cell line; HPB-MLT, an HLA-A24^− hematologic malignant cell line; and an HLA-A24^+ PHA blastoid T-cell.

[2] = tested on: PBMCs of HLA-A24+ patients with hematologic malignancies; experiment: IFN-γ production by peptide-stimulated patient PBMCs in response to peptide-pulsed C1R-A24 cells; assay type: cell-based, human; design: peptide-specific IFN-γ production: unit not given here; settings: for peptide-specific IFN-γ production: 10 μM peptide in vitro, vs peptide-pulsed C1R-A24, HIV-peptide background subtracted; for Responding case/total (enhancement of IFN-γ production): ten HLA-A24+ patients with hematologic malignancies
Method: The induction of peptide-specific cytotoxic T lymphocytes from PBMCs of a patient with hematologic malignancy was conducted as reported preveously (Non-Patent Reference 5). The following peptides were used to induce cytotoxic T lymphocytes: p56^lck protein-derived peptides (Lck208 (SEQ ID NO: 1), Lck488 (SEQ ID NO: 2) and Lck486 (SEQ ID NO: 3)); SART-1-derived peptide (SART-1690 (SEQ ID NO: 4)); SART-2-derived peptides (SART-293 (SEQ ID NO: 5), SART-2161 (SEQ ID NO: 6) and SART-2899 (SEQ ID NO: 7)); SART-3-derived peptides (SART-3109 (SEQ ID NO: 8) and SART-3315 (SEQ ID NO: 9)); and ART-1-derived peptide (ART-1170 (SEQ ID NO: 10)). All of these peptides are the epithelial cancer-related antigen-derived peptides and have the ability to induce cytotoxic T lymphocytes from PBMCs of an epithelial cancer patient in an HLA-A24 dependent manner (Non-Patent References 3-6 and 12). A human immunodeficiency virus (HIV)-derived peptide (SEQ ID NO: 11) and Epstein-Barr virus (EBV)-derived peptide (SEQ ID NO: 12) were used respectively as a negative control peptide and positive control peptide both of which have an HLA-A24-binding motif. […] PBMCs were prepared from peripheral blood that was collected from a patient with hematologic malignancy using Ficoll-Conray density-gradient centrifugation. The expression of HLA-A24 molecules on PBMCs was determined using flow cytometry by a well known method (Non-Patent Reference 5). The induction of cytotoxic T lymphocytes from PBMCs was conducted as follows. […] The culture medium consisted of 45% RPMI-1640, 45% AIM-V (Invitrogen), 10% FCS, 100 U/ml of interleukin-2 (IL-2), and 0.1 mM MEM non-essential amino acid solution (Invitrogen). […] The background IFN-γ production in response to the HIV-derived peptide (SEQ ID NO: 11) was subtracted from the values given in the data. When the mean value of the IFN-γ produced from the peptide-stimulated PBMCs in response to a corresponding peptide was higher than that produced in response to the HIV peptide (SEQ ID NO: 11), it was judged that the precursor of a peptide-specific cytotoxic T lymphocyte was present in the PBMCs and that the peptide-specific cytotoxic T lymphocytes were induced by the peptide. PBMCs of ten cases of HLA-A24^+ patients with hematologic malignancies (two cases with CLL, one case with MCL, one case with NHL, one case with B-ALL, one case with MM, one case with MDS, two cases with ATL, and one case with T-ALL) were tested for the induction of cytotoxic T lymphocytes using peptides that were derived from p56^lck protein, SART-1, SART-2, SART-3 and ART-1. The peptides used were the peptides that induced peptide-specific tumor-reactive cytotoxic T lymphocytes from PBMCs of an HLA-A24^+ epithelial cancer patient, which are currently on clinical trials for use as vaccines for epithelial cancer patients. The PBMCs were stimulated with the peptide in vitro to measure the peptide-specific IFN-γ production.

[3] = tested on: HLA-A24- hematologic malignant cell line (HPB-MLT); experiment: 51Cr-release test of peptide-stimulated PBMCs against HLA-A24- malignant line; assay type: cell-based, human; settings: peptide-stimulated patient PBMCs further cultured with IL-2; effector/target 3, 10 or 30; 6 h
Method: as §1

[4] = tested on: HLA-A24+ PHA blastoid T-cell; experiment: 51Cr-release test of peptide-stimulated PBMCs against normal cells; assay type: cell-based, human; settings: peptide-stimulated patient PBMCs further cultured with IL-2; effector/target 3, 10 or 30; 6 h
Method: as §1

[5] = tested on: C1R-A24 cells pulsed with the peptides; experiment: Peptide-specific cytotoxic activity of PBMCs of vaccinated multiple myeloma patient (51Cr-release); assay type: in vivo, human; settings: for peptide-specific cytotoxic activity of PBMCs: MM patient No. 6, PBMCs acquired after the sixth vaccination; for cytotoxic activity (% lysis) against C1R-A24 cells pulsed with corresponding peptide: MM patient No. 6, with the increasing number of peptide vaccination
Text: The patient (patient No. 6 in table 2) subjected to clinical trials was a HLA-A24^+ […] suffering from IgA-type multiple myeloma with a stage III by Durie & Salmon's classification. The patient received multiple cycles of chemotherapy before participating in this clinical test and had acquired the resistance to chemotherapy. However, for four weeks before peptide vaccination, the patient had not received chemotherapy and administration with steroid or any other immunosuppressive drugs.
Three kinds of emulsions each of which contains each of these peptides respectively and an adjuvant were prepared according to the method described in Example 1, and vaccinated to the patient by injecting subcutaneously at different sites of the patient's lateral thigh. […] The skin test was conducted by injecting intradermally the solution of 50 μg of each peptide in physiological saline and determining immediate-type or delayed-type hypersensitivity reaction at 20 minutes or 24 hours after the injection.
The vaccinations were conducted seven times every two weeks using SART-1690 (SEQ ID NO: 4), Lck488 (SEQ ID NO: 2) and ART-1170 (SEQ ID NO: 10). The cytotoxic activity of PBMCs acquired after the sixth vaccination was measured according to the in vitro test described in Example 3. […] Therefore, in the eighth and later vaccinations, three kinds of emulsions each of which contains SART-1690 (SEQ ID NO: 4), Lck488 (SEQ ID NO: 2) or Lck208 (SEQ ID NO: 1) and an adjuvant were prepared according to the method described in Example 1 and used.
After the vaccinations, PBMCs derived from the patient were studied for their peptide-specific cytotoxic activity by ^51Cr-release test using C1R-A24 cells pulsed with the peptides used. […] On the other hand, their cytotoxic activity was extremely low against RPMI-8226 that is an HLA-A24^− myeloid cell line.

Molecule | peptide-specific IFN-γ production ([2]; PBMCs of patient #1 CLL) | peptide-specific IFN-γ production ([2]; PBMCs of patient #2 CLL) | peptide-specific IFN-γ production ([2]; PBMCs of patient #3 MCL) | peptide-specific IFN-γ production ([2]; PBMCs of patient #4 NHL) | peptide-specific IFN-γ production ([2]; PBMCs of patient #5 B-ALL) | peptide-specific IFN-γ production ([2]; PBMCs of patient #6 MM) | peptide-specific IFN-γ production ([2]; PBMCs of patient #7 MDS) | peptide-specific IFN-γ production ([2]; PBMCs of patient #8 ATL) | peptide-specific IFN-γ production ([2]; PBMCs of patient #9 ATL) | peptide-specific IFN-γ production ([2]; PBMCs of patient #10 T-ALL) | Responding case/total (enhancement of IFN-γ production) [2] | peptide-specific cytotoxic activity of PBMCs [5] | other results
CSCC[C@H](NC(=O)[C@H](Cc1ccccc1)NC(=O)[C@@H](NC(=O)[C@@H]1CCCN1C(=O)CNC(=O)[C@H](Cc1ccc(O)cc1)NC(=O)[C@@H](N)[C@@H](C)O)C(C)C)C(=O)N[C@@H](CS)C(=O)N[C@@H](CC(C)C)C(=O)O [EBV, reference compound] |  |  |  |  |  |  |  |  |  |  |  |  | cytotoxic activity (% lysis) against HLA-A24+ hematologic malignant line ([1]; listed as EBV derive peptides): not observed; cytotoxic activity (% lysis) against HLA-A24+ hematologic malignant line ([1]; listed as EBV-derived peptide): exhibited no cytotoxic activity; cytotoxic activity (% lysis) against HLA-A24+ hematologic malignant line ([1]; listed as Epstein-Barr virus (EBV)-derived peptide): exhibited no cytotoxic activity
SART-3315: SART-3-derived peptide; epithelial cancer-related antigen peptide (AYIDFEMKI; Partial peptide of SART-3) | 39 | 137 | 6 | 0 | 11 | 0 | 0 | 22 | 60 | 6 | 1/10 |  | 
AYDFLYNYL [SART-2161] |  |  |  |  |  |  |  |  |  |  |  |  | cytotoxic activity (% lysis) against HLA-A24+ hematologic malignant line [1]: significant cytotoxic activity; also recorded: exhibited cytotoxic activity; cytotoxic activity (% lysis) against HLA-A24- hematologic malignant line [3]: did not show cytotoxic activity; also recorded: did not exhibit cytotoxic activity; cytotoxic activity (% lysis) against HLA-A24+ PHA blastoid T-cells [4]: did not show cytotoxic activity; also recorded: did not exhibit cytotoxic activity
SART-1690: SART-1-derived peptide; epithelial cancer-related antigen peptide (EYRGFTQDF; Partial peptide of SART-1) | 0 | 486 | 0 | 53 | 8 | 141 | 0 | 55 | 155 | 26 | 3/10 | observed | 
RYLRDQQLLGI [HIV, reference compound] |  |  |  |  |  |  |  |  |  |  |  |  | cytotoxic activity (% lysis) against HLA-A24+ hematologic malignant line ([1]; listed as HIV-derived peptide): not observed; cytotoxic activity (% lysis) against HLA-A24+ hematologic malignant line ([1]; listed as human immunodeficiency virus (HIV)-derived peptide): exhibited no cytotoxic activity
Lck208: p56lck protein-derived peptide, N-terminal residue at position 208; epithelial cancer-related antigen peptide (HYTNASDGL; Partial peptide of p56lck protein) | 0 | 2 | 22 | 30 | 0 | 0 | 0 | 0 | 445 | 153 | two and 2/10 | observed | cytotoxic activity (% lysis) against C1R-A24 cells pulsed with corresponding peptide [5]: enhanced induction of cytotoxic activity
SYTRLFLIL [SART-2899] |  |  |  |  |  |  |  |  |  |  |  |  | cytotoxic activity (% lysis) against HLA-A24+ hematologic malignant line [1]: significant cytotoxic activity; cytotoxic activity (% lysis) against HLA-A24- hematologic malignant line [3]: did not show cytotoxic activity; cytotoxic activity (% lysis) against HLA-A24+ PHA blastoid T-cells [4]: did not show cytotoxic activity
Lck488: p56lck protein-derived peptide; epithelial cancer-related antigen peptide (DYLRSVLEDF; Partial peptide of p56lck protein) | 0 | 0 | 0 | 0 | 6 | 182 | 102 | 476 | 304 | 0 | four and 4/10 | observed | cytotoxic activity (% lysis) against C1R-A24 cells pulsed with corresponding peptide [5]: enhanced induction of cytotoxic activity
